# Activity calls are given as the source filed them.
# Experiments:
# [1] = molecular target: T1, Heat shock factor protein 1 (Mus musculus, UniProt P38532); experiment: decrease of HSF1-responsive luciferase luminescence – cell-based, NIH3T3, dose retest, confirmation (AID 2382); assay type: functional;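 further: NIH3T3 fibroblasts with HSF1-driven luciferase reporter stressed by proteasome inhibitor MG132; luminescence from HSF1-driven luciferase expression after 8 hours of MG132 stress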
# T1 sequence (P38532 whole entry): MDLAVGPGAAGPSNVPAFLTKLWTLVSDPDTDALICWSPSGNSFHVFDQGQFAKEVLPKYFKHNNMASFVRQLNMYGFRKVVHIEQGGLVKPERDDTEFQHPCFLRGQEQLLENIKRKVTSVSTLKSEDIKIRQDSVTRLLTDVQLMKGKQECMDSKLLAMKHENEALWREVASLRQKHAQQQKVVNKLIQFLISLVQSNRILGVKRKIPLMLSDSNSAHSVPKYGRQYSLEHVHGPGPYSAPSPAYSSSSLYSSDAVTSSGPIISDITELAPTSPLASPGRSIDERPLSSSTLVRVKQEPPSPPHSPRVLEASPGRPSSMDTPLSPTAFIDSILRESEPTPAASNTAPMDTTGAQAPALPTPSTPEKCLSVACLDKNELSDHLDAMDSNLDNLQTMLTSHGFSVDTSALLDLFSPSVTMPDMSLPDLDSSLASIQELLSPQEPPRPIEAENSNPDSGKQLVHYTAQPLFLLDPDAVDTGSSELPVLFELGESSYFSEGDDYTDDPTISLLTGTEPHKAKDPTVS
# [2] = molecular target: T2, Replicative DNA helicase DnaB (Mycobacterium tuberculosis, UniProt P9WMR3); experiment: DnaB intein splicing inhibitors, dose response, biochemical, cell-free fluorescence (AID 449749); assay type: functional
# T2 sequence (P9WMR3 whole entry): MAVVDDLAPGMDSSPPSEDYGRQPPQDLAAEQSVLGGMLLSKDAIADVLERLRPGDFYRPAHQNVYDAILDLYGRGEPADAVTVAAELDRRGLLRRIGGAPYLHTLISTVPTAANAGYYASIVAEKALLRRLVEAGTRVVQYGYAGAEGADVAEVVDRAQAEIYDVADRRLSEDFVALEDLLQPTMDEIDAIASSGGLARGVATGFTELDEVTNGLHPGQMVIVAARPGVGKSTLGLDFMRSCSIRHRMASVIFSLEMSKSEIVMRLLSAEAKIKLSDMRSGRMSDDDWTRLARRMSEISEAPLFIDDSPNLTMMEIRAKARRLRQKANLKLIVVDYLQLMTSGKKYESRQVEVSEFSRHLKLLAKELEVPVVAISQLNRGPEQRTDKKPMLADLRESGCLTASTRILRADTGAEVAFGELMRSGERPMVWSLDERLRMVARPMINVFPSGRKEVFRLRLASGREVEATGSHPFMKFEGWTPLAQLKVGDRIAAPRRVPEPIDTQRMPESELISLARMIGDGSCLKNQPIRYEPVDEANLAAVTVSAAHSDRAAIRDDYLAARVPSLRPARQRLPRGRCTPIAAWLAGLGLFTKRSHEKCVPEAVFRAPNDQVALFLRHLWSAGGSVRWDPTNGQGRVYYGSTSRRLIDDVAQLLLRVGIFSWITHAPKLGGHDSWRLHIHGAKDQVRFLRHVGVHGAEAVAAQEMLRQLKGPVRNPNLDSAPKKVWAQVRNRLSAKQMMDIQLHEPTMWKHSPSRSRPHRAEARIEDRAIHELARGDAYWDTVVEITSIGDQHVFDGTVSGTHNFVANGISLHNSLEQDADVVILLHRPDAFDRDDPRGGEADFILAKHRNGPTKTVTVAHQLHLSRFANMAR
# Protein RecA = molecular target: T3, Protein RecA (Mycobacterium tuberculosis, UniProt P9WHJ3); experiment: Fluorescence Cell-Free Homogeneous Dose Retest to Identify Inhibitors of RecA-Intein Splicing Activity. [Related pubchem assays (depositor defined):AID2097, AID2223, AID489010, AID492950]; assay type: functional
# T3 sequence (P9WHJ3 whole entry): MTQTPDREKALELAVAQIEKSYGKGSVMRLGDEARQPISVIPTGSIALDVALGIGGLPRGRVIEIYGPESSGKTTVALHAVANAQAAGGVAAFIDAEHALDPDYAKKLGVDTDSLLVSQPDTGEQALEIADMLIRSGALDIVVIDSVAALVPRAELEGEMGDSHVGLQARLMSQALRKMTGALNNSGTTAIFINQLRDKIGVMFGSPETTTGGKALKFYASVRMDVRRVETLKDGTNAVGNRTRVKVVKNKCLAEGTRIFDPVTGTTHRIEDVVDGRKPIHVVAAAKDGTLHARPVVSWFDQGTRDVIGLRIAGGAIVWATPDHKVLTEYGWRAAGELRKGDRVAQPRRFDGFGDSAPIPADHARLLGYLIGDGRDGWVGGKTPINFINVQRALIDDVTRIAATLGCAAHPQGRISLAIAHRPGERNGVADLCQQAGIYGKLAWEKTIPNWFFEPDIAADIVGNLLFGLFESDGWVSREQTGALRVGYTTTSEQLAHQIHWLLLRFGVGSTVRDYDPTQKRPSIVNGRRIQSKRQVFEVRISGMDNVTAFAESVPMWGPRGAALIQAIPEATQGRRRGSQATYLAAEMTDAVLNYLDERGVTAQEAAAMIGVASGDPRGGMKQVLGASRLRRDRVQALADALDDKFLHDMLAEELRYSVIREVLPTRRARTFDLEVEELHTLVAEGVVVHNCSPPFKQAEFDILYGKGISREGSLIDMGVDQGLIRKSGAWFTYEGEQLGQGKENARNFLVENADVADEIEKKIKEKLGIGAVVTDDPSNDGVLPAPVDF
# Cytochrome P450 1A2 = molecular target: T4, Cytochrome P450 1A2 (Homo sapiens, UniProt P05177);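 further: PubChem cytochrome P450 panel assay, CYP1A2 panel member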
# T4 sequence (P05177 whole entry): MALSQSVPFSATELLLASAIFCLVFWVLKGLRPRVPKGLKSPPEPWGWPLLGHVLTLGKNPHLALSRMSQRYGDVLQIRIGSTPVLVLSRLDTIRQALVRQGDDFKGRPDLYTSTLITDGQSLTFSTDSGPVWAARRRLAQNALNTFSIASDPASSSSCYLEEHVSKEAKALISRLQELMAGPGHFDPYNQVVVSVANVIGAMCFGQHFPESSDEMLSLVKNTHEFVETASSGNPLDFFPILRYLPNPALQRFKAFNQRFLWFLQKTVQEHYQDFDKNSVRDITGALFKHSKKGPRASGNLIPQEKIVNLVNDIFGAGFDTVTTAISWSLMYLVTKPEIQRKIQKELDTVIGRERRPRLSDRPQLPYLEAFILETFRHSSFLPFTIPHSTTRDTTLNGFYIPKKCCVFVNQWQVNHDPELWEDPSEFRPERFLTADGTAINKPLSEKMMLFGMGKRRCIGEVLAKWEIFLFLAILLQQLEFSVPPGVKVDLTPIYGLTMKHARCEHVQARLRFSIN
# Cytochrome P450 2C19 = Cytochrome P450 2C19 (Homo sapiens, UniProt P33261); experiment: Cytochrome panel assay with activity outcomes. Panel member name: p450-cyp2c19 Compounds with AC50 equal or less than 10 uM are considered active; assay type: functional
# Chain of Cytochrome P450 2C19 (P33261 whole entry): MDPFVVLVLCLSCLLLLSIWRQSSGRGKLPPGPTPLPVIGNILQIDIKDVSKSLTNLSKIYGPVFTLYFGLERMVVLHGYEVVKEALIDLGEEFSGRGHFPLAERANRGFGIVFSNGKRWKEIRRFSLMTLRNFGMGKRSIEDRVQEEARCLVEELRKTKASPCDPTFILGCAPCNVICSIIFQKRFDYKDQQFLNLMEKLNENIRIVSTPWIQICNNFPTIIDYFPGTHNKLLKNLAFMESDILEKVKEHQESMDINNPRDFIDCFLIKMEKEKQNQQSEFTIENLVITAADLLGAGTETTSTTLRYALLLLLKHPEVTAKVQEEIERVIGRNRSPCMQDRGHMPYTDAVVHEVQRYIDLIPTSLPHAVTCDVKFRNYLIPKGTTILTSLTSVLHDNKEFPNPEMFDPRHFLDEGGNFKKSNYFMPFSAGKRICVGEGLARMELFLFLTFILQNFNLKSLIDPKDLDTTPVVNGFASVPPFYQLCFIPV
# Cytochrome P450 3A4 = Cytochrome P450 3A4 (Homo sapiens, UniProt P08684);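 further: CYP3A4 tested as one member of a cytochrome P450 panel screen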
# Chain of Cytochrome P450 3A4 (P08684 whole entry): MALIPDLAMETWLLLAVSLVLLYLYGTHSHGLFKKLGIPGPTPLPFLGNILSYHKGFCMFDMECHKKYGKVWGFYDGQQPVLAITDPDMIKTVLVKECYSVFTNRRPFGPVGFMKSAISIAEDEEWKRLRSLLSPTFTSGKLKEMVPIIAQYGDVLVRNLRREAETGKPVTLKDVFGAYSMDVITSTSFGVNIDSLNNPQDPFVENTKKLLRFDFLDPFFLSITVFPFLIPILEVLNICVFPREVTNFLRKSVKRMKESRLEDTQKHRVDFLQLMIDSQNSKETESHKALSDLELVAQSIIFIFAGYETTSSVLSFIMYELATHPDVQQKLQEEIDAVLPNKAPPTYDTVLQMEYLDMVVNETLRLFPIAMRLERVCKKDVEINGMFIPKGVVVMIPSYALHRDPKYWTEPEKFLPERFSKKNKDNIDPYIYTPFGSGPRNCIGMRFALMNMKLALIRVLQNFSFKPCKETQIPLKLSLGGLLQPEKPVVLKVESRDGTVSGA
structure (smiles),measurement,setting,value
Cc1ccc(Cn2c(C3CCCN3c3nc(C)cs3)nc3cc(C(F)(F)F)ccc32)cc1 (configuration not stated),EC50,[1],> 195 µM (not active)
Cc1n[nH]c(O)c1C(c1cc2c(cc1Br)OCO2)c1c(C)n[nH]c1O,AC50,[2],0.723 µM (active)
same,EC50,Protein RecA,0.352 µM (active)
Cn1cc(-c2nc3cnc(N4CCOCC4)nc3n(C3CC3)c2=O)c2ccccc21,AC50,Cytochrome P450 1A2,3.16 µM (inconclusive)
same,AC50,Cytochrome P450 2C19,inconclusive
same,AC50,Cytochrome P450 3A4,7.94 µM (inconclusive)
COC1(OC)N=C(NC(=O)Nc2ccccc2)C2(C#N)C(c3ccccc3)C12C#N (configuration not stated),AC50,Cytochrome P450 1A2,39.8 µM (inconclusive)
same,AC50,Cytochrome P450 2C19; read-out: AC50,5.01 µM (inconclusive)
CN1CCN(Cc2cc(=O)oc3ccc(Cl)cc23)CC1,AC50,[2],> 380 µM (inactive)
same,EC50,Protein RecA,> 380 µM (inactive)
O=C(c1cc(F)c(F)cc1Cl)N1CCN(c2ccc([N+](=O)[O-])c3ncccc23)CC1,AC50,[2],3.47 µM (active)
same,EC50,Protein RecA,11.8 µM (active)
O=C1C(Cl)=C(N2CCCCCC2)C(=O)N1c1ccccc1,AC50,[2],> 380 µM (inactive)
same,EC50,Protein RecA,10.3 µM (active)
O=C(CN1C(=O)c2ccccc2S1(=O)=O)NCc1cccs1,EC50,[1],> 195 µM (not active)
CCOC(=O)N1CCN(C(=O)c2ccc(CS(=O)(=O)c3c(Cl)cccc3Cl)o2)CC1,EC50,[1],> 195 µM (not active)
O=C(O)CCCNC(=O)CCCNC(=O)C(c1ccccc1)c1ccccc1,EC50,[1],> 195 µM (not active)
N[C@]1(C(=O)O)CCc2cc(P(=O)(O)O)ccc21,AC50,Cytochrome P450 1A2,39.8 µM (inconclusive)
same,AC50,Cytochrome P450 2C19; read-out: AC50,15.8 µM (inconclusive)
COc1ccc(-c2nc(CSCC(=O)NCC3CCCO3)c(C)o2)cc1OC (configuration not stated),AC50,Cytochrome P450 2C19; read-out: AC50,31.6 µM (inconclusive)
same,AC50,Cytochrome P450 3A4,39.8 µM (inconclusive)
CCOC(=O)CSc1nc(C)cc(Oc2ccc(=O)n(C)n2)n1,EC50,[1],28.1 µM (active)
CCSc1c([N+](=O)[O-])c(=O)n(-c2ccccc2)c2ccccc12,AC50,[2],3.94 µM (active)
same,EC50,Protein RecA,155 µM (active)
COc1ccc(-c2noc(CCC(=O)Nc3ccc(C)c(C)c3)n2)cc1,EC50,[1],> 195 µM (not active)
COc1cc(/C=N/NC(=O)c2ccc(F)cc2)ccc1OC(=O)c1ccco1,AC50,[2],24 µM (active)
same,EC50,Protein RecA,20 µM (active)
N#CCCn1c(=O)c(CCc2ccccc2)nc2cnc(OCc3ccccc3)nc21,AC50,Cytochrome P450 1A2,12.6 µM (inconclusive)
same,AC50,Cytochrome P450 2C19; read-out: AC50,39.8 µM (inconclusive)
same,AC50,Cytochrome P450 3A4,0.2 µM (inconclusive)
Cc1ccc(S(=O)(=O)N2CCN(S(C)(=O)=O)C2)cc1,EC50,[1],> 195 µM (not active)
CC(=O)c1c(N2CCC(C(N)=O)CC2)nc(=S)n(-c2ccccc2)c1C,AC50,Cytochrome P450 2C19; read-out: AC50,31.6 µM (inconclusive)
O=C(O)c1cccc2cc(-c3ccccc3)oc(=O)c12,EC50,[1],> 195 µM (not active)
COc1ccc(CNC(=O)CCCCCNC(=O)N2CCn3c2nc2ccccc23)cc1,EC50,[1],> 195 µM (not active)
N#C[C@H]1[C@H](c2ccccc2)[C@](C#N)(C(=O)c2ccccc2)[C@@H]2C=Cc3ccccc3N21,AC50,[2],> 380 µM (inactive)
same,EC50,Protein RecA,8.36 µM (active)
O=C(O)c1cccc(Cn2c(Cl)c(/C=N/Nc3ccccc3)sc2=O)c1,AC50,[2],> 380 µM (inactive)
same,EC50,Protein RecA,> 380 µM (inactive)
CCCC[C@@H](CNC)NC[C@H](Cc1ccc(O)cc1)NCCc1ccc(OCC)cc1,EC50,[1],> 195 µM (not active)
O=C(CSC(=S)N1CCOCC1)Nc1nc(-c2ccccc2)c(-c2ccccc2)o1,EC50,[1],> 195 µM (not active)
O=C(c1ccco1)N1CCN=C1SCc1ccccc1F,EC50,[1],> 195 µM (not active)
Cc1ccc2c(c1)c1c(n2CC(O)CN2CCOCC2)CCCC1 (configuration not stated),EC50,[1],> 195 µM (not active)
O=C(Oc1ccc(OC(=O)c2ccco2)c(S(=O)(=O)c2ccc(Br)cc2)c1)c1ccco1,AC50,Cytochrome P450 1A2,2.24 µM (inconclusive)
same,AC50,Cytochrome P450 2C19; read-out: AC50,1.41 µM (inconclusive)
same,AC50,Cytochrome P450 3A4,5.62 µM (inconclusive)
O=C(NC(=S)NC1C2CC3CC(C2)CC1C3)c1ccccc1 (configuration not stated),EC50,[1],> 195 µM (not active)
N#C/C(=N\O)c1nc(-c2ccccc2)cs1,AC50,Cytochrome P450 2C19; read-out: AC50,39.8 µM (inconclusive)
same,AC50,Cytochrome P450 3A4,15.8 µM (inconclusive)
CCOc1cc(/C=C2\C(=O)N(CCC#N)N=C2C)ccc1OCC(N)=O,AC50,[2],6.01 µM (active)
same,EC50,Protein RecA,3.61 µM (active)
CCOc1cc(/C=N/NC(=O)CN2CCCCC2)ccc1OCc1ccccc1,AC50,Cytochrome P450 2C19; read-out: AC50,25.1 µM (inconclusive)
COc1ccc(-c2cc(C(=O)NCc3cccnc3)no2)cc1OC,AC50,Cytochrome P450 2C19; read-out: AC50,28.2 µM (inconclusive)
O=C(c1cccs1)[C@@H]1[C@@H]2C(=O)N(Cc3ccc4c(c3)OCO4)C(=O)[C@@H]2C2c3ccccc3C=CN21 (some centres not stated),AC50,[2],4.09 µM (active)
same,EC50,Protein RecA,3.22 µM (active)
COC(=O)c1cc(NC(=O)Nc2ccccc2OC)cc(C(=O)OC)c1,EC50,Protein RecA,> 380 µM (inactive)
Cc1ccc(SC(C)C(=O)NCc2cccnc2)cc1 (configuration not stated),AC50,Cytochrome P450 2C19; read-out: AC50,7.08 µM (inconclusive)
same,AC50,Cytochrome P450 3A4,1 µM (inconclusive)
